15 compounds from patent EP4768484A1, “HETEROCYCLIC FUSED RING COMPOUND, AND COMPOSITION AND USE THEREOF” (Shenzhen TargetRx, Inc., priority 2023, dated 2025) can be followed below.

The structures appear in SMILES notation.

Holding throughout (format): cell-based
One test deals with K562 cells. The experiment in a line: Cell growth inhibitory activity assay (CellTiter-Glo), K562 cells. The following applies: Homo sapiens, 72 h, CTG cell viability. The protocol:
(§1) In this assay, the Celltiter-Glo (CTG) kit provided by Promega was used, and it is a homogeneous cell viability assay method. The cell viability of cultured cells was measured by quantifying ATP. K562 cells were purchased from Nanjing Kebai, product number CBP60529; Ba/F3 parental cells were purchased from RIKEN BRC, product number RCB0805; other cells containing BCR-ABL1 WT, BCR-ABL1 T315I, BCR-ABL1 T315M, BCR-ABL1 Y253H/E255K, BCR-ABL1 E255V/T3151, BCR-ABL1 A424T, BCR-ABL1 A337V, BCR-ABL1 P465S, BCR-ABL1 V468F, and BCR-ABL1 I502L were all monoclonal engineered cell lines obtained by transducting Ba/F3 parental cells with the lentivirus plasmids containing WT or corresponding mutated BCR-ABL1.
(§2) The steps of cell viability assay are as follows: • a) Cells in logarithmic growth phase were collected. Cell suspension was prepared and the cells were counted. Concentration of the cells was calculated. • b) The cell suspension was diluted to the required concentration and then added to the middle wells of a 96-well plate, and PBS was added to the edge wells. The wells with no cells and only culture medium were used as blank controls. • c) In addition to the cell plate used for compound analysis, another 96-well plate was prepared as a T0 plate, and 3-6 blank wells and 3-6 cell wells were added. The next day, CTG was used to test the cell viability as the T0 viability value of the cells. • d) The cell plate was incubated at 37 °C in a 5% CO2 incubator overnight. • e) The next day, each concentration of a compound subjected to a gradient dilution was added, and the cell plate was incubated at 37 °C in a 5% CO2 incubator for 72 h. The wells with no compound and only 0.5% DMSO were used as positive controls for cell growth. • f) CTG reagent (CellTiter-Glo kit) was added according to the manufacturer's instructions to test the cell viability value. • g) The plate was read using Biotek cytation3.0 microplate reader and the data were exported. • h) IC50 was calculated using GraphPad Prism 7.0 software.
(§3) The IC50 (half-maximal inhibitory concentration) of the compound was obtained using the following nonlinear fitting formula: Y = Bottom + (Top−Bottom)/(1+10^(∧)((LogIC50−X)*HillSlope)) [formula] • X: Log value of the compound concentration • Y: Inhibition rate (% inhibition) • Top: Maximum response • Bottom: Baseline response • HillSlope: Slope of the curve
(§4) The formula for calculating cell inhibition rate (inhibition rate %) was: [formula]

A further test concerns the target T1, Ba/F3 BCR-ABL1 WT (Homo sapiens, UniProt P00519+P11274).
T1 construct: BCR (N-terminal fusion partner of the oncoprotein); expressed in transfected cells; host or cells: Ba/F3 (lentiviral transduction, monoclonal line)
Kind of test: Cell growth inhibitory activity assay (CellTiter-Glo), Ba/F3 BCR-ABL1 WT cells. To be noted: 72 h, CTG cell viability. On the procedure:
as §1, §2, §3, §4
In general terms: Cellular ATP, detected with luciferase, serves as a proxy for viable cell number.

The target of another test is T2, Ba/F3 BCR-ABL1 T315I (Homo sapiens, UniProt P00519+P11274, T315I).
T2 construct: BCR (N-terminal fusion partner of the oncoprotein); expressed in transfected cells; host or cells: Ba/F3 (lentiviral transduction, monoclonal line)
The experiment in a line: Cell growth inhibitory activity assay (CellTiter-Glo), Ba/F3 BCR-ABL1 T315I cells. The following applies: 72 h, CTG cell viability. On the procedure:
as §1, §2, §3, §4

In the next test the test system is Ba/F3 parental cells. Kind of test: Cell growth inhibitory activity assay (CellTiter-Glo), Ba/F3 parental cells. To be noted: Mus musculus, BaF3, 72 h, CTG cell viability, read-out: IC50 Ba/F3 BCR-ABL1 Parental. On the procedure:
as §1, §2, §3, §4

For the compound `O=C(Nc1ccc(OC(F)(F)Cl)cc1)c1cnc(N2CC[C@@H](F)C2)c(-c2cnc3c(c2)-c2c(cnn2-c2ncc(F)cn2)C3)c1` [T-6-B, (R)-N-(4-(chlorodifluoromethoxy)phenyl)-5-(1-(5-fluoropyrimidin-2-yl)-1,4-dihydropyrazolo[3',4':3,4]cyclopenta[1,2-b]pyridin-7-yl)-6-(3-fluoropyrrolidin-1-yl)nicotinamide], the IC50 is at most 5 nM in the test with K562 cells, at most 5 nM on Ba/F3 BCR-ABL1 WT, 5 to 50 nM at Ba/F3 BCR-ABL1 T315I and above 1000 nM in the test with Ba/F3 parental cells.
As for `CN1Cc2ncc(-c3cc(C(=O)Nc4ccc(OC(F)(F)Cl)cc4)cc4c3C3(CCCCC3)C(=O)N4)cc2C1=O` [T-8, N-(4-(chlorodifluoromethoxy)phenyl)-4'-(6-methyl-5-oxo-6,7-dihydro-5H-pyrrolo[3,4-b]pyridin-3-yl)-2'-oxospiro[cyclohexane-1,3'-indoline]-6'-carboxamide], the IC50 with K562 cells was at most 5 nM; against Ba/F3 BCR-ABL1 WT it was at most 5 nM; on Ba/F3 BCR-ABL1 T315I, 5 to 50 nM; with Ba/F3 parental cells, above 1000 nM.
In the case of `O=C(Nc1ccc(OC(F)(F)Cl)cc1)c1cnc(N2CC[C@@H](F)C2)c(-c2cnc3c(c2)-c2nn(-c4nccc(-c5cccnc5)n4)cc2C3)c1` [T-9, (R)-N-(4-(chlorodifluoromethoxy)phenyl)-6-(3-fluoropyrrolidin-1-yl)-5-(2-(4-(pyridin-3-yl)pyrimidin-2-yl)-2,4-dihydropyrazolo[3',4':3,4]cyclopenta[1,2-b]pyridin-7-yl)nicotinamide], the IC50 with K562 cells was at most 5 nM; on Ba/F3 BCR-ABL1 WT it was at most 5 nM; on Ba/F3 BCR-ABL1 T315I, at most 5 nM; with Ba/F3 parental cells, above 1000 nM.
For the compound `CC(C)n1ncc2c1-c1cc(-c3cc(C(=O)Nc4ccc(OC(F)(F)Cl)cc4)cnc3N3CC[C@@H](F)C3)cnc1C2` [T-10-A, (R)-N-(4-(chlorodifluoromethoxy)phenyl)-6-(3-fluoropyrrolidin-1-yl)-5-(1-isopropyl-1,4-dihydropyrazolo[3',4':3,4]cyclopenta[1,2-b]pyridin-7-yl)nicotinamide], the IC50 was at most 5 nM with K562 cells, 5 to 50 nM against Ba/F3 BCR-ABL1 WT, 5 to 50 nM against Ba/F3 BCR-ABL1 T315I and above 1000 nM with Ba/F3 parental cells.
Take `CC(C)n1cc2c(n1)-c1cc(-c3cc(C(=O)Nc4ccc(OC(F)(F)Cl)cc4)cnc3N3CC[C@@H](F)C3)cnc1C2` [T-10-B, (R)-N-(4-(chlorodifluoromethoxy)phenyl)-6-(3-fluoropyrrolidin-1-yl)-5-(2-isopropyl-2,4-dihydropyrazolo[3',4':3,4]cyclopenta[1,2-b]pyridin-7-yl)nicotinamide]: the IC50 is at most 5 nM in the test with K562 cells, at most 5 nM against Ba/F3 BCR-ABL1 WT, at most 5 nM on Ba/F3 BCR-ABL1 T315I and above 1000 nM with Ba/F3 parental cells.
`O=C(Nc1ccc(OC(F)(F)Cl)cc1)c1cnc(N2CC[C@H](F)C2)c(-c2cnc3c(c2)-c2nn(-c4ncc(F)cn4)cc2C3)c1` [T-13, (S)-N-(4-(chlorodifluoromethoxy)phenyl)-5-(2-(5-fluoropyrimidin-2-yl)-2,4-dihydropyrazolo[3',4':3,4]cyclopenta[1,2-b]pyridin-7-yl)-6-(3-fluoropyrrolidin-1-yl)nicotinamide]: the IC50 in the test with K562 cells was at most 5 nM; at Ba/F3 BCR-ABL1 WT, at most 5 nM; against Ba/F3 BCR-ABL1 T315I, at most 5 nM; in the test with Ba/F3 parental cells, above 1000 nM.
With `Cc1cnc(-n2cc3c(n2)-c2cc(-c4cc(C(=O)Nc5ccc(OC(F)(F)Cl)cc5)cnc4N4CC[C@@H](F)C4)cnc2C3)nc1` [T-14, (R)-N-(4-(chlorodifluoromethoxy)phenyl)-6-(3-fluoropyrrolidin-1-yl)-5-(2-(5-methylpyrimidin-2-yl)-2,4-dihydropyrazolo[3',4':3,4]cyclopenta[1,2-b]pyridin-7-yl)nicotinamide], the IC50 is at most 5 nM in the test on K562 cells, at most 5 nM against Ba/F3 BCR-ABL1 WT, at most 5 nM at Ba/F3 BCR-ABL1 T315I and above 1000 nM in the test with Ba/F3 parental cells.
Regarding `O=C(Nc1ccc(OC(F)(F)Cl)cc1)c1cnc(N2CC[C@@H](F)C2)c(-c2cnc3c(c2)-c2nn(-c4ncc(C(F)(F)F)cn4)cc2C3)c1` [T-15, (R)-N-(4-(chlorodifluoromethoxy)phenyl)-6-(3-fluoropyrrolidin-1-yl)-5-(2-(5-(trifluoromethyl)pyrimidin-2-yl)-2,4-dihydropyrazolo[3',4':3,4]cyclopenta[1,2-b]pyridin-7-yl)nicotinamide], the IC50 in the test with K562 cells is at most 5 nM; against Ba/F3 BCR-ABL1 WT it was at most 5 nM; at Ba/F3 BCR-ABL1 T315I, 5 to 50 nM; in the test with Ba/F3 parental cells it was above 1000 nM.
On to `C[C@@H]1COCc2nc3cc(C(=O)Nc4ccc(OC(F)(F)Cl)cc4)cc(-c4cnc5c(c4)-c4nn(C)cc4C5)c3n21` [T-16, (R)-N-(4-(chlorodifluoromethoxy)phenyl)-4-methyl-6-(2-methyl-2,4-dihydropyrazolo[3',4':3,4]cyclopenta[1,2-b]pyridin-7-yl)-3,4-dihydro-1H-benzo[4,5]imidazo[2,1-c][1,4]oxazine-8-carboxamide], for which the IC50 in the test with K562 cells was at most 5 nM; against Ba/F3 BCR-ABL1 WT it was at most 5 nM; on Ba/F3 BCR-ABL1 T315I, at most 5 nM; with Ba/F3 parental cells, above 1000 nM.
On to `COc1cnc(-n2cc3c(n2)-c2cc(-c4cc(C(=O)Nc5ccc(OC(F)(F)Cl)cc5)cnc4N4CC[C@@H](F)C4)cnc2C3)nc1` [T-17, (R)-N-(4-(chlorodifluoromethoxy)phenyl)-6-(3-fluoropyrrolidin-1-yl)-5-(2-(5-methoxypyrimidin-2-yl)-2,4-dihydropyrazolo[3',4':3,4]cyclopenta[1,2-b]pyridin-7-yl)nicotinamide], for which the IC50 was at most 5 nM in the test on K562 cells, at most 5 nM at Ba/F3 BCR-ABL1 WT, at most 5 nM on Ba/F3 BCR-ABL1 T315I and above 1000 nM in the test with Ba/F3 parental cells.
Regarding `N#Cc1ccc(-c2ccnc(-n3cc4c(n3)-c3cc(-c5cc(C(=O)Nc6ccc(OC(F)(F)Cl)cc6)cnc5N5CC[C@@H](F)C5)cnc3C4)n2)cn1` [T-19, (R)-N-(4-(chlorodifluoromethoxy)phenyl)-5-(2-(4-(6-cyanopyridin-3-yl)pyrimidin-2-yl)-2,4-dihydropyrazolo[3',4':3,4]cyclopenta[1,2-b]pyridin-7-yl)-6-(3-fluoropyrrolidin-1-yl)nicotinamide], the IC50 with K562 cells is at most 5 nM; against Ba/F3 BCR-ABL1 WT, at most 5 nM; on Ba/F3 BCR-ABL1 T315I, at most 5 nM; with Ba/F3 parental cells, above 1000 nM.
Consider `O=C(Nc1ccc(OC(F)(F)Cl)cc1)c1cnc(N2CC[C@@H](F)C2)c(-c2cnc3c(c2)-c2nn(-c4nccc(-c5cncnc5)n4)cc2C3)c1` [T-22], for which the IC50 with K562 cells was at most 5 nM; at Ba/F3 BCR-ABL1 WT, at most 5 nM; on Ba/F3 BCR-ABL1 T315I, at most 5 nM; in the test on Ba/F3 parental cells it was above 1000 nM.
With `CC(C)n1cnc2cc(C(=O)Nc3ccc(OC(F)(F)Cl)cc3)cc(-c3cnccn3)c21` [T-23, N-(4-(chlorodifluoromethoxy)phenyl)-1-isopropyl-7-(pyrazin-2-yl)-1H-benzo[d]imidazole-5-carboxamide], the IC50 in the test with K562 cells is 5 to 50 nM; on Ba/F3 BCR-ABL1 WT it was at most 5 nM; against Ba/F3 BCR-ABL1 T315I, 50 to 1000 nM; with Ba/F3 parental cells, above 1000 nM.
Taken in the same sequence, the figures for `C[C@@H]1CCOc2nc3cc(C(=O)Nc4ccc(OC(F)(F)Cl)cc4)cc(-c4cnc5c(c4)C(=O)N(C)C5)c3n21` [T-24, (R)-N-(4-(chlorodifluoromethoxy)phenyl)-4-methyl-6-(6-methyl-5-oxo-6,7-dihydro-5H-pyrrolo[3,4-b]pyridin-3-yl)-3,4-dihydro-2H-benzo[4,5]imidazo[2,1-b][1,3]oxazine-8-carboxamide] were at most 5 nM, 5 to 50 nM, 50 to 1000 nM and above 1000 nM.
For `Cn1ccc(-c2ccnc(-n3cc4c(n3)-c3cc(-c5cc(C(=O)Nc6ccc(OC(F)(F)Cl)cc6)cnc5N5CC[C@@H](F)C5)cnc3C4)n2)n1` [T-26, (R)-N-(4-(chlorodifluoromethoxy)phenyl)-6-(3-fluoropyrrolidin-1-yl)-5-(2-(4-(1-methyl-1H-pyrazol-3-yl)pyrimidin-2-yl)-2,4-dihydropyrazolo[3',4':3,4]cyclopenta[1,2-b]pyridin-7-yl)nicotinamide], in that order: at most 5 nM, at most 5 nM, at most 5 nM and above 1000 nM.
